From patent publication US12122761B2, “2-azaspiro[3.4]octane derivatives as M4 agonists” (NOVARTIS AG, priority 2019, dated 2024)

Legend:
Assay type in all cases: cell-based
[1] = biological target: T1, human cloned CHRM2 receptor (M2_CHO cells) (Homo sapiens, UniProt P08172); experiment: CHRM2 Ca++ Flux Assay (agonist mode, FDSS 7000EX); conditions: for M2 FDSS PA: Percent Activity measured to EC100 of Carbachol
T1 construct: expressed in transfected cells; host or cells: CHO-K1
T1 sequence (P08172 1-466): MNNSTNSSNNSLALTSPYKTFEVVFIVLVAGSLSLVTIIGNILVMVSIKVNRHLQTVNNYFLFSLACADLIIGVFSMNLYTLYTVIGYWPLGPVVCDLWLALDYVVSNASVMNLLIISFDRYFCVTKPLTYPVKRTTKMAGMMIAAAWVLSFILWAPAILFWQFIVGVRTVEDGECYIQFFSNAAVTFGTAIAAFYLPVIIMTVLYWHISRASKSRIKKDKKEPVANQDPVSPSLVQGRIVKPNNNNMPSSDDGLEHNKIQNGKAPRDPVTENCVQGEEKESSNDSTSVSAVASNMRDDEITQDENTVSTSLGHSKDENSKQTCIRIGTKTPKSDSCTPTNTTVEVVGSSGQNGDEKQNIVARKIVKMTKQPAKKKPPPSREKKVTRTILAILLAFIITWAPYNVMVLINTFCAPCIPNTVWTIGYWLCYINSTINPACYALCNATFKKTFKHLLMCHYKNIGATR
Procedure: The above examples were characterized by measuring the intracellular mobilization of Ca++ ions caused by signaling events mediated by the receptor. The Intra-cellular Calcium flux levels were captured by the highly sensitive Ca++ indicator, Calcium Assay Kit (BD Biosciences, Catalog Number 640178). The fluorescent activity from all receptors were monitored by the fluorescent imager, FDSS 7000EX (Hamamatsu) over a span of 3 minutes.
CHO-K1 cells stably expressing the human cloned CHRM2 receptor (M2_CHO cells) were grown and maintained in a monolayer culture with F12/HAM (Life Technologies) supplemented with 10% Fetal Bovine Serum, 1× Pen-Strep, and 0.4 mg/mL Geneticin in a humidified atmosphere (5% CO2) at 37° C. The cultures were grown to 80-9 0% confluency in T150 flasks (Corning) and washed with 1×DPBS and lifted with 0.05% Trypsin (Life Technologies). The cells were then spun (1K rpm, 3 minutes) and frozen using Recovery Cell Culture Freezing Media (Gibco Technologies). Cells were stored in liquid nitrogen and thawed a day before the assay.
Prior to the day of the assay, stable M2 CHO cells were thawed and plated on Greiner 384 well TC treated plate at a density of 12K cells/well and kept overnight in a humidified atmosphere (5% CO2) at 37° C. The following day, the cells were loaded with Ca^++ dye (BD Biosciences) using Loading Buffer (HBSS +Ca/+Mg, 20 mM HEPES, 2.5 mM Probenecid) and placed back in cell incubator for a minimum of 1 hour and maximum of 2 hours. After incubation, the dye was replaced with Assay Buffer (HBSS −Ca/−Mg, 20 mM HEPES, 2.5 mM Probenecid) supplemented with 20 μM ATP (Sigma Aldrich) and kept at room temperature for 60 minutes prior before running on cell imager. The FDSS 7000EX (Hamamatsu) was used to acquire Ca^++ traces from cells in response to compound treatment and the data was used to generate dose response curves in agonist mode. All compounds were serially diluted in DMSO then prepared in Assay Buffer for Ca^++ flux studies. The dose response curves were generated from the average of triplicate wells obtained from each data point and used a non-linear regression of four parameter dose response algorithm. The Percent Activity (PA) was measured to EC100 of Carbachol.

[2] = biological target: T2, human cloned CHRM3 receptor (M3_CHO cells) (Homo sapiens, UniProt P20309); experiment: CHRM3 Ca++ Flux Assay (agonist mode, FDSS 7000EX); conditions: for M3 FDSS PA: Percent Activity measured to EC100 of Carbachol; for EC50: agonist mode, geometric mean if tested more than once, read-out: M3 FDSS EC50
T2 construct: expressed in transfected cells; host or cells: CHO-K1
Outline: (§1)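 Agonist responses are measured as calcium mobilization in CHO-K1 cells expressing human M3 or M5, tested over an 11-point dose range in triplicate. Percent activity is normalised to carbachol at EC100.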

[3] = biological target: T3, human cloned CHRM5 receptor (M5_CHO) (Homo sapiens, UniProt P08912); experiment: CHRM5 Ca++ Flux Assay (agonist mode, FDSS 7000EX); conditions: for M5 FDSS PA: Percent Activity measured to EC100 of Carbachol; for EC50: agonist mode, geometric mean if tested more than once, read-out: M5 FDSS EC50
T3 construct: expressed in transfected cells; host or cells: CHO (M5_CHO)
T3 sequence (P08912 1-532): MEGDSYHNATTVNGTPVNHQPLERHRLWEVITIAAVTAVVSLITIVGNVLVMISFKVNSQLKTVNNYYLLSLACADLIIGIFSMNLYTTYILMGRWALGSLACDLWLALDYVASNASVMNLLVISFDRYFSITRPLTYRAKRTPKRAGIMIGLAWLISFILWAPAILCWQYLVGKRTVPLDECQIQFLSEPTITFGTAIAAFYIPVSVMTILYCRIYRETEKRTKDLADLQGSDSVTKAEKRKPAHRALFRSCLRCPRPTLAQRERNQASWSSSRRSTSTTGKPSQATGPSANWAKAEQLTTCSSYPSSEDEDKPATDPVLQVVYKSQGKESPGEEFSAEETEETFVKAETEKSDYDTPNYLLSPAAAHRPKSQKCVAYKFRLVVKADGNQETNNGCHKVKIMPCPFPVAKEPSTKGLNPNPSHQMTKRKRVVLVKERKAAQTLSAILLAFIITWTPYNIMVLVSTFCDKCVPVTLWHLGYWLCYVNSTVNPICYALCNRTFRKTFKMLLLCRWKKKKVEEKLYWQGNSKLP
Outline: as §1

T2 sequence (P20309 whole entry): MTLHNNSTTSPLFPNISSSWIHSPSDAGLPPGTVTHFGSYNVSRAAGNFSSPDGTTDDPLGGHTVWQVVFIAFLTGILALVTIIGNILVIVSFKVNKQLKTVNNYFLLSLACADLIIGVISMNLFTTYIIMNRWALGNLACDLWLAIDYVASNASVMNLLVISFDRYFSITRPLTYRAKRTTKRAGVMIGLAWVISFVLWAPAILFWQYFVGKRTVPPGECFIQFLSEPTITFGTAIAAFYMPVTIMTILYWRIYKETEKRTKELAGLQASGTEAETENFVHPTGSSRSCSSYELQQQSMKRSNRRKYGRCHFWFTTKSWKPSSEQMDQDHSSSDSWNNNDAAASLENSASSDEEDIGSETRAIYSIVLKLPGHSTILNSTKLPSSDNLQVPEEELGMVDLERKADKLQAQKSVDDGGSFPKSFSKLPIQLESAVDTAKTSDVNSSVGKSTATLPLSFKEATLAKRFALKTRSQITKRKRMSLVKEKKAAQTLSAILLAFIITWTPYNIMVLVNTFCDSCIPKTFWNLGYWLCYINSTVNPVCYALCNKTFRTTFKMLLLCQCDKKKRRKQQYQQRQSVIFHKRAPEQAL

Structure (SMILES)	M2 FDSS PA [1] [%]	M3 FDSS PA [2] [%]	EC50 [2] [µM]	M5 FDSS PA [3] [%]	EC50 [3] [µM]	EC50 ([1]; agonist mode, geometric mean if tested more than once, read-out: M2 FDSS EC50) [µM]
Cc1ncc(COc2ccccc2C2CCN([C@@H]3CCC4(C3)CN(C(=O)C3(F)CC3)C4)CC2)o1 (single isomer, unassigned) [Example 7V, (R)-(1-fluorocyclopropyl)(6-(4-(2-((2-methyloxazol-5-yl)methoxy)phenyl)piperidin-1-yl)-2-azaspiro[3.4]octan-2-yl)methanone or (S)-(1-fluorocyclopropyl)(6-(4-(2-((2-methyloxazol-5-yl)methoxy)phenyl)piperidin-1-yl)-2-azaspiro[3.4]octan-2-yl)methanone]	0	0	> 25	0	> 25	–
Cc1nnc(COc2ccccc2C2CCN([C@@H]3CCC4(C3)CN(C(=O)C3(F)CC3)C4)CC2)o1 (single isomer, unassigned) [Example 7W, (R)-(1-fluorocyclopropyl)(6-(4-(2-((5-methyl-1,3,4-oxadiazol-2-yl)methoxy)phenyl)piperidin-1-yl)-2-azaspiro[3.4]octan-2-yl)methanone or (S)-(1-fluorocyclopropyl)(6-(4-(2-((5-methyl-1,3,4-oxadiazol-2-yl)methoxy)phenyl)piperidin-1-yl)-2-azaspiro[3.4]octan-2-yl)methanone]	0	0	> 25	8	0.077	–
Cc1nc(COc2ccccc2C2CCN([C@@H]3CCC4(C3)CN(C(=O)C3(F)CC3)C4)CC2)no1 (single isomer, unassigned) [Example 7X, (R)-(1-fluorocyclopropyl)(6-(4-(2-((5-methyl-1,2,4-oxadiazol-3-yl)methoxy)phenyl)piperidin-1-yl)-2-azaspiro[3.4]octan-2-yl)methanone or (S)-(1-fluorocyclopropyl)(6-(4-(2-((5-methyl-1,2,4-oxadiazol-3-yl)methoxy)phenyl)piperidin-1-yl)-2-azaspiro[3.4]octan-2-yl)methanone]	0	0	> 25	9	0.071	–
Cc1nnc(COc2ccccc2C2CCN([C@@H]3CCC4(C3)CN(C(=O)C3(F)CC3)C4)CC2)o1 (single isomer, unassigned) [Example 7Y, (R)-(1-fluorocyclopropyl)(6-(4-(2-((5-methyl-1,3,4-oxadiazol-2-yl)methoxy)phenyl)piperidin-1-yl)-2-azaspiro[3.4]octan-2-yl)methanone or (S)-(1-fluorocyclopropyl)(6-(4-(2-((5-methyl-1,3,4-oxadiazol-2-yl)methoxy)phenyl)piperidin-1-yl)-2-azaspiro[3.4]octan-2-yl)methanone]	0	0	> 25	0	> 25	–
Cc1nc(COc2ccccc2C2CCN([C@@H]3CCC4(C3)CN(C(=O)C3(F)CC3)C4)CC2)no1 (single isomer, unassigned) [Example 7Z, (R)-(1-fluorocyclopropyl)(6-(4-(2-((5-methyl-1,2,4-oxadiazol-3-yl)methoxy)phenyl)piperidin-1-yl)-2-azaspiro[3.4]octan-2-yl)methanone or (S)-(1-fluorocyclopropyl)(6-(4-(2-((5-methyl-1,2,4-oxadiazol-3-yl)methoxy)phenyl)piperidin-1-yl)-2-azaspiro[3.4]octan-2-yl)methanone]	0	0	> 25	0	> 25	–
COc1ccc(Cl)cc1C1CCN([C@H]2CCC3(C2)CN(C(=O)C2(F)CC2)C3)CC1 (single isomer, unassigned) [Example 8A, (S)-(6-(4-(5-chloro-2-methoxyphenyl)piperidin-1-yl)-2-azaspiro[3.4]octan-2-yl)(1-fluorocyclopropyl)methanone or (R)-(6-(4-(5-chloro-2-methoxyphenyl)piperidin-1-yl)-2-azaspiro[3.4]octan-2-yl)(1-fluorocyclopropyl)methanone]	0	0	> 25	0	> 25	–
COc1ccc(Cl)cc1C1CCN([C@H]2CCC3(C2)CN(C(=O)C2(F)CC2)C3)CC1 (single isomer, unassigned) [Example 8B, (S)-(6-(4-(5-chloro-2-methoxyphenyl)piperidin-1-yl)-2-azaspiro[3.4]octan-2-yl)(1-fluorocyclopropyl)methanone or (R)-(6-(4-(5-chloro-2-methoxyphenyl)piperidin-1-yl)-2-azaspiro[3.4]octan-2-yl)(1-fluorocyclopropyl)methanone]	0	0	> 25	0	> 25	–
O=C(N1CC2(CC[C@@H](N3CCC(c4ccccc4OC(F)(F)F)CC3)C2)C1)C1(F)CC1 (single isomer, unassigned) [Example 9A, (R)-(1-fluorocyclopropyl)(6-(4-(2-(trifluoromethoxy)phenyl)piperidin-1-yl)-2-azaspiro[3.4]octan-2-yl)methanone or (S)-(1-fluorocyclopropyl)(6-(4-(2-(trifluoromethoxy)phenyl)piperidin-1-yl)-2-azaspiro[3.4]octan-2-yl)methanone]	31	0	> 25	0	> 25	11.8
O=C(N1CC2(CC[C@@H](N3CCC(c4ccccc4OC(F)(F)F)CC3)C2)C1)C1(F)CC1 (single isomer, unassigned) [Example 9B, (R)-(1-fluorocyclopropyl)(6-(4-(2-(trifluoromethoxy)phenyl)piperidin-1-yl)-2-azaspiro[3.4]octan-2-yl)methanone or (S)-(1-fluorocyclopropyl)(6-(4-(2-(trifluoromethoxy)phenyl)piperidin-1-yl)-2-azaspiro[3.4]octan-2-yl)methanone]	0	0	> 25	0	> 25	–
